Assays:
Type in all cases: physicochemical
[1] = Residual rate of the active substance in monomer solution (HPLC); conditions: for Residual Rate of active substance, Immediately after Preparation: 3 parts per 100 parts monomer; for Residual Rate of active substance, after 7 Days: preserved at 25° C. for 7 days
[2] = Solvency of DMAE in fatty acid ester or additive; conditions: 50 parts DMAE in 950 parts, 25° C.
Description: When a crystal of DMAE was precipitated […], and when a crystal of DMAE was not precipitated, the solvency was evaluated to be “poor”.

[3] = Solubility of DMAE at 25° C. (HPLC); conditions: g per 100 g of solvent
[4] = Solvency of the active substance in monomer (visual inspection); design: key: Excellent: The active substance was not found to have been precipitated in the solution of active substance both immediately after the preparation and after the preservation for 7 days.; Good: The active substance was found to have been precipitated in the solution of active substance immediately after the preparation, but the active substance was not found to have been precipitated in the solution of active substance after the preservation for 7 days.; Poor: The active substance was found to have been precipitated in the solution of active substance both immediately after the preparation and after the preservation for 7 days; conditions: 3 parts active substance per 100 parts monomer, 25° C., 7 days
[5] = monomer: 2-Ethylhexyl Methacrylate

COc1ccc(OC)c(C(O)CN)c1 (stereo not shown) [DMAE, 2-amino-1-(2′,5′-dimethoxyphenyl)ethanol]
Residual Rate of active substance, Immediately after Preparation ([1]; monomer: 1-Vinyl-2-Pyrrolidone): 100 % by weight
Residual Rate of active substance, after 7 Days ([1]; monomer: 1-Vinyl-2-Pyrrolidone): 100 % by weight
Residual Rate of active substance, Immediately after Preparation ([1]; monomer: 2-Ethylhexyl Acrylate): 39 % by weight
Residual Rate of active substance, after 7 Days ([1]; monomer: 2-Ethylhexyl Acrylate): 11 % by weight
Residual Rate of active substance, Immediately after Preparation [1, 5]: 99 % by weight
Residual Rate of active substance, after 7 Days [1, 5]: 99 % by weight
Residual Rate of active substance, Immediately after Preparation ([1]; monomer: Acrylic Acid): 99 % by weight
Residual Rate of active substance, after 7 Days ([1]; monomer: Acrylic Acid): 97 % by weight
Residual Rate of active substance, Immediately after Preparation ([1]; monomer: Butyl Acrylate): 27 % by weight
Residual Rate of active substance, Immediately after Preparation ([1]; monomer: Butyl Methacrylate): 98 % by weight
Residual Rate of active substance, after 7 Days ([1]; monomer: Butyl Methacrylate): 98 % by weight
Residual Rate of active substance, Immediately after Preparation ([1]; monomer: Dodecyl Methacrylate): 100 % by weight
Residual Rate of active substance, after 7 Days ([1]; monomer: Dodecyl Methacrylate): 99 % by weight
Solvency of DMAE ([2]; solvent Butylene Glycol): Poor
Solvency of DMAE ([2]; solvent Diethyl Sebacate): Excellent
Solvency of DMAE ([2]; solvent Hexyl Laurate): Excellent
Solvency of DMAE ([2]; solvent Isopropyl Myristate): Excellent
Solvency of DMAE ([2]; solvent Isopropyl Palmitate): Excellent
Solvency of DMAE ([2]; solvent Isostearic Acid): Poor
Solvency of DMAE ([2]; solvent Liquid Paraffin): Excellent
Solvency of DMAE ([2]; solvent Medium-chain Triglyceride): Excellent
Solvency of DMAE ([2]; solvent Monoethanolamine): Poor
Solvency of DMAE ([2]; solvent Octanediol): Poor
Solvency of DMAE ([2]; solvent Octyldodecyl Myristate): Excellent
Solvency of DMAE ([2]; solvent Oleic Acid): Excellent
Solvency of DMAE ([2]; solvent Oleyl Alcohol): Excellent
Solvency of DMAE ([2]; solvent Polyoxyethylene (2) Lauryl Ether): Excellent
Solvency of DMAE ([2]; solvent Propylene Glycol): Poor
Solvency of DMAE ([2]; solvent Squalane): Excellent
Solvency of DMAE ([2]; solvent Triacetin): Poor
Solubility of DMAE ([3]; in Diethyl Sebacate): 0.9 g
Solubility of DMAE ([3]; in Hexyl Laurate): 0.2 g
Solubility of DMAE ([3]; in Isopropyl Myristate): 0.2 g
Solubility of DMAE ([3]; in Isopropyl Palmitate): 0.2 g
Solubility of DMAE ([3]; in Liquid Paraffin): 0.02 g
Solubility of DMAE ([3]; in Medium-chain Triglyceride): 0.3 g
Solubility of DMAE ([3]; in Octyldodecyl Myristate): 0.05 g
Solubility of DMAE ([3]; in Oleic Acid): 3.7 g
Solubility of DMAE ([3]; in Oleyl Alcohol): 2.5 g
Solubility of DMAE ([3]; in Polyoxyethylene (2) Lauryl Ether): 3.7 g
Solubility of DMAE ([3]; in Squalane): 0.01 g
Solvency of active substance ([4]; monomer: 1-Vinyl-2-Pyrrolidone): Poor
Solvency of active substance ([4]; monomer: 2-Ethylhexyl Acrylate): Poor
Solvency of active substance [4, 5]: Poor
Solvency of active substance ([4]; monomer: Acrylic Acid): Excellent
Solvency of active substance ([4]; monomer: Butyl Acrylate): Good
Solvency of active substance ([4]; monomer: Butyl Methacrylate): Poor
Solvency of active substance ([4]; monomer: Dodecyl Methacrylate): Poor
Solvency of active substance ([4]; monomer: Ethyl Acrylate): Excellent

COc1ccc2c(c1)c(CC(=O)O)c(C)n2C(=O)c1ccc(Cl)cc1 [IMT, indomethacin]
Residual Rate of active substance, Immediately after Preparation ([1]; monomer: 1-Vinyl-2-Pyrrolidone): 100 % by weight
Residual Rate of active substance, after 7 Days ([1]; monomer: 1-Vinyl-2-Pyrrolidone): 100 % by weight
Residual Rate of active substance, Immediately after Preparation ([1]; monomer: 2-Ethylhexyl Acrylate): 100 % by weight
Residual Rate of active substance, after 7 Days ([1]; monomer: 2-Ethylhexyl Acrylate): 100 % by weight
Residual Rate of active substance, Immediately after Preparation [1, 5]: 100 % by weight
Residual Rate of active substance, after 7 Days [1, 5]: 100 % by weight
Residual Rate of active substance, Immediately after Preparation ([1]; monomer: Acrylic Acid): 100 % by weight
Residual Rate of active substance, after 7 Days ([1]; monomer: Acrylic Acid): 100 % by weight
Residual Rate of active substance, Immediately after Preparation ([1]; monomer: Butyl Acrylate): 100 % by weight
Residual Rate of active substance, after 7 Days ([1]; monomer: Butyl Acrylate): 100 % by weight
Residual Rate of active substance, Immediately after Preparation ([1]; monomer: Butyl Methacrylate): 100 % by weight
Residual Rate of active substance, after 7 Days ([1]; monomer: Butyl Methacrylate): 99 % by weight
Residual Rate of active substance, Immediately after Preparation ([1]; monomer: Dodecyl Methacrylate): 100 % by weight
Residual Rate of active substance, after 7 Days ([1]; monomer: Dodecyl Methacrylate): 100 % by weight
Residual Rate of active substance, Immediately after Preparation ([1]; monomer: Ethyl Acrylate): 100 % by weight
Residual Rate of active substance, after 7 Days ([1]; monomer: Ethyl Acrylate): 99 % by weight
Solvency of active substance ([4]; monomer: 1-Vinyl-2-Pyrrolidone): Excellent
Solvency of active substance ([4]; monomer: 2-Ethylhexyl Acrylate): Poor
Solvency of active substance [4, 5]: Poor
Solvency of active substance ([4]; monomer: Acrylic Acid): Excellent
Solvency of active substance ([4]; monomer: Butyl Acrylate): Poor
Solvency of active substance ([4]; monomer: Butyl Methacrylate): Poor
Solvency of active substance ([4]; monomer: Dodecyl Methacrylate): Poor
Solvency of active substance ([4]; monomer: Ethyl Acrylate): Poor

O=[N+]([O-])O[C@H]1CO[C@H]2[C@@H]1OC[C@H]2O[N+](=O)[O-] [ISDN, isosorbide dinitrate]
Residual Rate of active substance, Immediately after Preparation ([1]; monomer: 1-Vinyl-2-Pyrrolidone): 100 % by weight
Residual Rate of active substance, after 7 Days ([1]; monomer: 1-Vinyl-2-Pyrrolidone): 100 % by weight
Residual Rate of active substance, Immediately after Preparation ([1]; monomer: 2-Ethylhexyl Acrylate): 100 % by weight
Residual Rate of active substance, after 7 Days ([1]; monomer: 2-Ethylhexyl Acrylate): 100 % by weight
Residual Rate of active substance, Immediately after Preparation [1, 5]: 100 % by weight
Residual Rate of active substance, after 7 Days [1, 5]: 99 % by weight
Residual Rate of active substance, Immediately after Preparation ([1]; monomer: Acrylic Acid): 100 % by weight
Residual Rate of active substance, after 7 Days ([1]; monomer: Acrylic Acid): 100 % by weight
Residual Rate of active substance, Immediately after Preparation ([1]; monomer: Butyl Acrylate): 100 % by weight
Residual Rate of active substance, after 7 Days ([1]; monomer: Butyl Acrylate): 100 % by weight
Residual Rate of active substance, Immediately after Preparation ([1]; monomer: Butyl Methacrylate): 100 % by weight
Residual Rate of active substance, after 7 Days ([1]; monomer: Butyl Methacrylate): 100 % by weight
Residual Rate of active substance, Immediately after Preparation ([1]; monomer: Dodecyl Methacrylate): 100 % by weight
Residual Rate of active substance, after 7 Days ([1]; monomer: Dodecyl Methacrylate): 100 % by weight
Residual Rate of active substance, Immediately after Preparation ([1]; monomer: Ethyl Acrylate): 100 % by weight
Residual Rate of active substance, after 7 Days ([1]; monomer: Ethyl Acrylate): 100 % by weight
Solvency of active substance ([4]; monomer: 1-Vinyl-2-Pyrrolidone): Excellent
Solvency of active substance ([4]; monomer: 2-Ethylhexyl Acrylate): Excellent
Solvency of active substance [4, 5]: Excellent
Solvency of active substance ([4]; monomer: Acrylic Acid): Excellent
Solvency of active substance ([4]; monomer: Butyl Acrylate): Excellent
Solvency of active substance ([4]; monomer: Butyl Methacrylate): Excellent
Solvency of active substance ([4]; monomer: Dodecyl Methacrylate): Excellent
Solvency of active substance ([4]; monomer: Ethyl Acrylate): Excellent

CC(C)(C)NCC(O)c1ccccc1Cl (stereo not shown) [TB, tulobuterol]
Residual Rate of active substance, Immediately after Preparation ([1]; monomer: 1-Vinyl-2-Pyrrolidone): 100 % by weight
Residual Rate of active substance, after 7 Days ([1]; monomer: 1-Vinyl-2-Pyrrolidone): 100 % by weight
Residual Rate of active substance, Immediately after Preparation ([1]; monomer: 2-Ethylhexyl Acrylate): 100 % by weight
Residual Rate of active substance, after 7 Days ([1]; monomer: 2-Ethylhexyl Acrylate): 88 % by weight
Residual Rate of active substance, Immediately after Preparation [1, 5]: 100 % by weight
Residual Rate of active substance, after 7 Days [1, 5]: 100 % by weight
Residual Rate of active substance, Immediately after Preparation ([1]; monomer: Acrylic Acid): 100 % by weight
Residual Rate of active substance, after 7 Days ([1]; monomer: Acrylic Acid): 96 % by weight
Residual Rate of active substance, Immediately after Preparation ([1]; monomer: Butyl Acrylate): 100 % by weight
Residual Rate of active substance, after 7 Days ([1]; monomer: Butyl Acrylate): 81 % by weight
Residual Rate of active substance, Immediately after Preparation ([1]; monomer: Butyl Methacrylate): 100 % by weight
Residual Rate of active substance, after 7 Days ([1]; monomer: Butyl Methacrylate): 100 % by weight
Residual Rate of active substance, Immediately after Preparation ([1]; monomer: Dodecyl Methacrylate): 100 % by weight
Residual Rate of active substance, after 7 Days ([1]; monomer: Dodecyl Methacrylate): 100 % by weight
Residual Rate of active substance, Immediately after Preparation ([1]; monomer: Ethyl Acrylate): 100 % by weight
Residual Rate of active substance, after 7 Days ([1]; monomer: Ethyl Acrylate): 70 % by weight
Solvency of active substance ([4]; monomer: 1-Vinyl-2-Pyrrolidone): Excellent
Solvency of active substance ([4]; monomer: 2-Ethylhexyl Acrylate): Excellent
Solvency of active substance [4, 5]: Excellent
Solvency of active substance ([4]; monomer: Acrylic Acid): Excellent
Solvency of active substance ([4]; monomer: Butyl Acrylate): Excellent
Solvency of active substance ([4]; monomer: Butyl Methacrylate): Excellent
Solvency of active substance ([4]; monomer: Dodecyl Methacrylate): Good
Solvency of active substance ([4]; monomer: Ethyl Acrylate): Excellent

Source: US20120171274A1, “TRANSDERMAL PATCH” (priority 2006, published 2012)
